According to the supplement of paper PMC4858399:

Tests used:
Settings in all cases: exposure time 48 h
[1] = system: Caenorhabditis elegans N2; experiment: AC50 for larval growth inhibition (Hill fit); higher = less potent
Procedure, shortened: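 Worms were synchronised C. elegans N2 L1 larvae, 50 per well of a 96-well plate, kept 48 h at 20°C in K-medium with killed OP50, 1% DMSO and 0.5–200 µM chemical. Size was taken as COPAS Biosort extinction, log-transformed and averaged per well, using only wells with at least 10 worms. AC50 was estimated by a constrained Hill fit with weighted genetic-algorithm regression; values outside the range are censored.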

[2] = system: Caenorhabditis elegans N2; experiment: lowest effective concentration for larval growth inhibition (size below effect threshold); higher = less potent
Procedure, shortened: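 Chemical exposure ran for 48 h at 20°C: 50 C. elegans N2 L1 larvae per 96-well in K-medium with killed bacteria, 1% DMSO and 0.5, 1, 5, 10, 50, 100 or 200 µM chemical. Extinction of each worm, read as size on the Biosort, was log-transformed and averaged by well. The lowest effective concentration is the first dose whose plate-adjusted mean size is below a fixed value and remains so at all higher doses; the value is 5.665.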

[3] = system: Caenorhabditis elegans N2; experiment: mean nematode size ln(EXT) after 48 h, plate-adjusted (DMSO control set to 6) (ln(EXT), control-adjusted); higher = larger nematodes / less growth inhibition
Procedure, shortened: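 Worms were measured individually for extinction on the Biosort after 48 h at 20°C. They began as synchronised C. elegans N2 L1 larvae in K-medium with killed OP50, 1% DMSO and 0.5–200 µM chemical. Once debris had been removed by a growth model, values were natural-logged and averaged per well to give mean size. The plate adjustment subtracted the vehicle control mean and added 6.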

SMILES | AC50 for larval growth inhibition [1] [µM] | lowest effective concentration [2] [µM] | mean nematode size ln(EXT) (ln) ([3]; 0.5 µM) | mean nematode size ln(EXT) (ln) ([3]; 1 µM) | mean nematode size ln(EXT) (ln) ([3]; 5 µM) | mean nematode size ln(EXT) (ln) ([3]; 10 µM) | mean nematode size ln(EXT) (ln) ([3]; 50 µM) | mean nematode size ln(EXT) (ln) ([3]; 100 µM) | mean nematode size ln(EXT) (ln) ([3]; 200 µM)
CC(=O)N1CCN(c2ccc(OCC3COC(Cn4ccnc4)(c4ccc(Cl)cc4Cl)O3)cc2)CC1 (centres undefined) [Ketoconazole] | 85.2 | 10 | 6 | 5.74 | 5.8 | 5.62 | 5.3 | 4.28 | 3.53
CC[C@H](NC(=O)c1cc(F)ccc1NS(=O)(=O)c1cccc2cccnc12)c1ccccc1 | 57.4 | 10 | 5.88 | 5.83 | 5.85 | 5.52 | 4.56 | 4.28 | 3.77
N#Cc1c(Cl)cccc1Cl [Dichlobenil] | > 200 | 200 | 5.93 | 5.79 | 6.11 | 5.95 | 5.9 | 6.01 | 5.54
O=C(Nc1ccccc1)Nc1ccnc(Cl)c1 [Forchlorfenuron] | > 200 | 50 | 5.77 | 5.96 | 5.81 | 5.82 | 5.44 | 5.54 | 4.5
CCCCOC(=O)c1ccccc1C(=O)OCCCC [Dibutyl phthalate] | 20.9 | 50 | 6.09 | 6.09 | 5.61 | 5.99 | 4.67 | 5.62 | 5.42
CO/N=C(/C(=O)OC)c1ccccc1CO/N=C(\C)c1cccc(C(F)(F)F)c1 [Trifloxystrobin] | 90.8 | 100 | 5.88 | 5.87 | 5.71 | 5.82 | 5.92 | 4.16 | 3.43
Nc1ccc(Cc2ccc(N)cc2)cc1 [4,4'-Methylenedianiline] | > 200 | 200 | 5.98 | 5.73 | 5.91 | 5.78 | 5.87 | 5.92 | 5.53
C=CCC1=C(C)[C@@H](OC(=O)[C@@H]2[C@@H](C=C(C)C)C2(C)C)CC1=O [S-Bioallethrin] | > 200 | 50 | 5.65 | 5.78 | 5.76 | 5.76 | 5.48 | 5.62 | 5.39
CCNP(=S)(OC)O/C(C)=C/C(=O)OC(C)C (centres undefined) [Propetamphos] | > 200 | 50 | 5.88 | 5.88 | 5.75 | 5.71 | 4.95 | 5.45 | 3.98
COP(=O)(OC)C(O)C(Cl)(Cl)Cl (centres undefined) [Trichlorfon] | 80.1 | 5 | 5.57 | 5.69 | 5.42 | 5.31 | 4.77 | 4.73 | 3.96
COC(=O)c1ccccc1O [Methyl salicylate] | > 200 | 200 | 5.89 | 5.86 | 5.82 | 5.75 | 5.81 | 5.78 | 5.26
Cc1ccc(C(C)(C)C)c(O)c1 [2-tert-Butyl-5-methylphenol] | > 200 | 200 | 6.07 | 6.05 | 6.02 | 6.06 | 5.95 | 5.91 | 4.77
CN=C=S [Methyl isothiocyanate] | > 200 | 200 | 6.14 | 6.37 | 6.06 | 6.02 | 5.96 | 6.02 | 5.06
CNC(=S)S [Metam-sodium hydrate] | 191 | 200 | 6.25 | 6.2 | 6.21 | 6.3 | 6.43 | 6.13 | 5.52
CCC/C(=N\OCC)C1=C(O)CC(CC(C)SCC)CC1=O (centres undefined) [Sethoxydim] | 149 | 200 | 6.01 | 6.16 | 6.06 | 6 | 5.76 | 5.97 | 3.35
Cc1cc(C)nc(Nc2ccccc2)n1 [Pyrimethanil] | 184 | 200 | 6 | 5.86 | 5.84 | 5.84 | 5.68 | 6.12 | 5.4
NC(=Nc1ccccc1)Nc1ccccc1 [1,3-Diphenylguanidine] | 16.6 | 5 | 5.67 | 5.74 | 5.62 | 5.6 | 5.63 | 5.64 | 5.55
O=C(O)c1ccc([N+](=O)[O-])cc1 [4-Nitrobenzoic acid] | > 200 | 200 | 6 | 5.57 | 5.86 | 5.85 | 5.77 | 5.91 | 5.53
CN1C(=O)CC[C@H]1c1cccnc1 [(-)-Cotinine] | > 200 | 200 | 5.86 | 5.93 | 5.88 | 5.82 | 5.9 | 5.87 | 5.65
CC(C)(C)OOC(C)(C)CCC(C)(C)OOC(C)(C)C [2,5-Dimethyl-2,5-bis(tert-butylperoxy)hexane] | 185 | 200 | 5.81 | 5.83 | 5.81 | 5.79 | 5.78 | 5.79 | 4.23
CCCCOC(=O)CCCCCCCCC(=O)OCCCC [Dibutyl sebacate] | 27 | 50 | 5.85 | 5.87 | 5.86 | 5.68 | 5.05 | 5.15 | 4.79
NC(=O)N1C(=O)C(C(=O)c2cc(Cl)cs2)c2cc(F)c(Cl)cc21 (centres undefined) | 1.41 | ≤ 0.5 | 5.49 | 4.96 | 4.54 | 4.37 | 4.04 | 4.02 | –
CCCN(CCC)c1c([N+](=O)[O-])cc(S(N)(=O)=O)cc1[N+](=O)[O-] [Oryzalin] | > 200 | 50 | 5.9 | 5.91 | 5.84 | 5.72 | 5.27 | 4.95 | 4.56

SMILES | AC50 for larval growth inhibition [1] [µM] | lowest effective concentration [2] [µM] | mean nematode size ln(EXT) (ln) ([3]; 0.5 µM) | mean nematode size ln(EXT) (ln) ([3]; 1 µM) | mean nematode size ln(EXT) (ln) ([3]; 5 µM) | mean nematode size ln(EXT) (ln) ([3]; 10 µM) | mean nematode size ln(EXT) (ln) ([3]; 50 µM) | mean nematode size ln(EXT) (ln) ([3]; 100 µM) | mean nematode size ln(EXT) (ln) ([3]; 200 µM)
CCSC(=O)N(CC(C)C)CC(C)C [Butylate] | 196 | 200 | 5.97 | 5.89 | 6.11 | 5.97 | 6.05 | 6.06 | 5.65
CSc1nc(NC(C)C)nc(NC(C)C)n1 [Prometryn] | > 200 | 200 | 5.83 | 5.76 | 5.87 | 6 | 5.79 | 5.86 | 5.37
c1cc2ccc3cccc4ccc(c1)c2c34 [Pyrene] | 4.29 | 1 | 5.71 | 5.58 | 4.64 | 4.52 | 4.28 | 4.05 | 3.59
COc1nc(NC(C)C)nc(NC(C)C)n1 [Prometon] | > 200 | 100 | 5.72 | 5.83 | 5.84 | 5.75 | 5.87 | 5.61 | 5.53
CCCOC(=O)c1cc(O)c(O)c(O)c1 [Propyl gallate] | 126 | 200 | 5.91 | 5.94 | 6.05 | 5.78 | 5.95 | 5.81 | 5.54
OC(Cn1cncn1)(Cn1cncn1)c1ccc(F)cc1F [Fluconazole] | > 200 | 200 | 6.08 | 6.04 | 6.06 | 6.09 | 6.01 | 5.99 | 5.56
Clc1ccc(C(c2ccc(Cl)cc2)C(Cl)(Cl)Cl)cc1 [p,p'-DDT] | 3.83 | 5 | 6 | 5.91 | 4.31 | 3.75 | 3.44 | 3.36 | 3.29
CC(C)N(C(=O)SCC(Cl)=C(Cl)Cl)C(C)C [Tri-allate] | 86.7 | 50 | 5.72 | 5.91 | 5.86 | 5.9 | 5.39 | 4.62 | 3.99
O=C(N[C@@H](Cc1ccccc1)[C@@H](O)C(=O)N1C[C@@H](O)[C@@H](O)C1)c1cc2cc(Cl)ccc2[nH]1 [Ingliforib] | > 200 | 100 | 5.94 | 5.79 | 5.75 | 5.85 | 5.79 | 5.46 | 5.44
CS(=O)(=O)NC(=O)c1cc(Oc2ccc(C(F)(F)F)cc2Cl)ccc1[N+](=O)[O-] [Fomesafen] | 180 | 200 | 5.93 | 5.95 | 5.95 | 5.95 | 5.89 | 6 | 5.52
CCOC(=O)c1ccc(C2CCC(NC[C@H](O)COc3ccc(O)c(NS(C)(=O)=O)c3)CC2)cc1 (some centres undefined) | > 200 | 100 | 5.91 | 5.88 | 5.77 | 5.77 | 5.7 | 5.57 | 5.48
COP(=S)(OC)Oc1nc(Cl)c(Cl)cc1Cl [Chlorpyrifos-methyl] | 96.8 | 100 | 6.24 | 6.29 | 6.3 | 6.17 | 5.93 | 4.68 | 3.59
O=C(Nc1ccc([N+](=O)[O-])cc1Cl)c1cc(Cl)ccc1O [Niclosamide] | 98.6 | 200 | 5.85 | 5.9 | 5.86 | 6.1 | 6.02 | 5.74 | 5.59
CCOP(=O)(OCC)Oc1nc(Cl)c(Cl)cc1Cl [Chlorpyrifos oxon] | 1.24 | ≤ 0.5 | 4.98 | 4.42 | 4.26 | 4.05 | 3.47 | 3.24 | 3.15
CCCCCCCC1CCC(=O)O1 (centres undefined) [5-Heptyldihydro-2(3H)-furanone] | 182 | 200 | 5.94 | 5.81 | 5.79 | 5.79 | 5.76 | 5.87 | 4.09
OC12N=C(c3ccccc3)SC1Cc1cc(Cl)ccc12 (centres undefined) | 48.6 | 5 | 5.69 | 5.74 | 5.5 | 5.45 | 4.53 | 4.08 | 3.96
CCc1c(C(=O)NN2CCCCC2)nn(-c2ccc(Cl)cc2Cl)c1-c1ccc(Br)cc1 [Surinabant] | > 200 | 5 | 5.77 | 5.74 | 5.6 | 5.44 | 5.2 | 5.06 | 4.77
O=C(Oc1ccc(Br)cc1)N1CCN2CCC1CC2 [4-bromophenyl 1,4-diazabicyclo[3.2.2]nonane-4-carboxylate] | > 200 | 50 | 5.84 | 5.83 | 5.81 | 5.83 | 5.65 | 5.6 | 5.33
CCCCCCCCCCCCOS(=O)(=O)[O-].[Na+] [Sodium dodecyl sulfate] | 24.5 | 10 | 5.87 | 5.81 | 5.75 | 5.47 | 4.99 | 4.66 | 4.69
CC(C)(C)C(O)(CCc1ccc(Cl)cc1)Cn1cncn1 (centres undefined) [Tebuconazole] | 144 | 50 | 5.91 | 5.93 | 5.86 | 5.81 | 5.26 | 5.21 | 4.07
CCc1cc(SCc2sc(-c3ccc(C(F)(F)F)cc3)nc2CN2CCN(c3ccc(OC)cc3)CC2)ccc1OCC(=O)O | 9.23 | 5 | 6 | 5.67 | 5.57 | 4.69 | 4.47 | 4.29 | 3.99
CC1COC(Cn2cncn2)(c2ccc(Oc3ccc(Cl)cc3)cc2Cl)O1 (centres undefined) [Difenoconazole] | 1.84 | 5 | 4.06 | 5.79 | 3.52 | 5.15 | 3.59 | 3.58 | 3.51
